{
  "source": "patent US9307764B2",
  "about": "“Pesticidal diaryl—heterocyclyl derivatives” (BAYER INTELLECTUAL PROPERTY GMBH, priority 2011, dated 2016)",
  "type_in_all_cases": "in vivo",
  "key": {"[1]": {"tested_on": "Aulacophora femoralis", "experiment": "Biological Test Example 2: Test on Aulacophora femoralis (cucumber leaf immersion)", "details": "100 ppm effective component concentration, 2nd-instar larvae, seven days later, 25° C.", "procedure": "(§1) Unless other methods are mentioned specifically, the sample solution preparation was prepared as follows.\n(§2) Solvent: 3 parts by weight of dimethyl formamide\n(§3) Emulsifier: 1 part by weight of polyoxyethylene alkyl phenyl ether\n(§4) To prepare a suitable concoction including the active compound, 1 part by weight of the active compound was mixed with the above amount of the solvent containing the above amount of the emulsifier, and the resulting mixture was diluted with water to predetermined concentrations.\nLeaves of cucumbers were immersed in the water-diluted solution containing the active compound at the predetermined concentration which was prepared above and, after the solution was air-dried, the resultant leaves were put onto sterilized black soil in a plastic cup, into which five of the 2nd-instar larvae of Aulacophora femoralis were then released. The cup was covered with a lid and maintained in a temperature controlled room at 25° C. having humidity of 50 to 60%. Seven days later, the number of dead larvae was counted to calculate the pesticidal ratio. 100% pesticidal ratio means death of all the larvae, while 0% pesticidal ratio means no dead larvae."}, "[2]": {"tested_on": "Spodoptera litura", "experiment": "Biological Test Example 3: Test on larvae of Spodoptera litura (method using artificial feeds)", "details": "100 ppm effective component concentration, 3rd-instar larvae, after 7 days, 25° C.", "procedure": "as §1, §2, §3, §4\nPowdery artificial feeds (trade name: SILK MATE, manufactured by Nihon Nosan Kogyo, Japan, 2.3 g) were added to a plastic cup (diameter: 7.5 cm, height: 4 cm) to achieve a certain thickness. Water-diluted liquid (5 mL) of the active compound prepared above having predetermined concentration was evenly poured thereto and allowed to stand until the feeds are solidified. Five of the 3rd-instar larvae of Spodoptera litura were released in each cup, and covered with a lid. The cups were put in a temperature controlled room at 25° C. having humidity of 50 to 60%, and the number of dead larvae after 7 days was determined to calculate the pesticidal ratio. 100% pesticidal ratio means death of all the larvae, while 0% pesticidal ratio means no dead larvae."}, "[3]": {"tested_on": "Tetranychus urticae", "experiment": "Biological Test Example 1: Test on Tetranychus urticae (spray on Egyptian bean leaves)", "details": "100 ppm effective component concentration, adult mites, seven days later", "procedure": "as §1, §2, §3, §4\n50 to 100 of adult Tetranychus urticae were inoculated to leaves at 2-leaf stage of Egyptian bean planted in pots of 6 cm in diameter, to which, 1 day later, the above prepared water diluted solution of the active compound at the predetermined concentration was sufficiently sprayed with a spray gun. After the compounds were sprayed, the pots were left in a greenhouse and the acaricidal ratio was calculated seven days later. 100% acaricidal ratio means death of all the mites, while 0% acaricidal ratio means none of the mites were dead."}},
  "data": [
    {"smiles": "CCC(=O)NCc1ccc(N2CC(c3cc(Cl)c(Cl)c(Cl)c3)(C(F)(F)F)OS2=O)cc1C(F)(F)F", "note": "(centres unmarked) [3-17, N-{4-[2-oxide-5-(3,4,5-trichlorophenyl)-5-(trifluoromethyl)-1,2,3-oxathiazolin-3-yl]-2-(trifluoromethyl)benzyl}propane amide]", "values": [
      {"measurement": "pesticidal ratio", "setting": "[1]", "result": 100, "unit": "%"},
      {"measurement": "pesticidal ratio", "setting": "[2]", "result": 100, "unit": "%"}
    ]},
    {"smiles": "CCC(=O)NCc1ccc(N2CC(c3cc(Cl)c(Cl)c(Cl)c3)(C(F)(F)F)OS2(=O)=O)cc1C(F)(F)F", "note": "(centres unmarked) [5-17, N-{4-[2,2-dioxide-5-(3,4,5-trichlorophenyl)-5-(trifluoromethyl)-1,2,3-oxathiazolin-3-yl]-2-(trifluoromethyl)benzyl}propane amide]", "values": [
      {"measurement": "pesticidal ratio", "setting": "[1]", "result": 100, "unit": "%"},
      {"measurement": "acaricidal ratio", "setting": "[3]", "result": 100, "unit": "%"},
      {"measurement": "pesticidal ratio", "setting": "[2]", "result": 100, "unit": "%"}
    ]},
    {"smiles": "CCC(=O)NCc1ccc(N2COC(c3cc(Cl)c(Cl)c(Cl)c3)(C(F)(F)F)C2)cc1C(F)(F)F", "note": "(centres unmarked) [Compound No. 1-17, N-{4-[5-(3,4,5-trichlorophenyl)-5-(trifluoromethyl)-1,3-oxazolidin-3-yl]-2-(trifluoromethyl)benzyl}propane amide]", "values": [
      {"measurement": "pesticidal ratio", "setting": "[1]", "result": 100, "unit": "%"},
      {"measurement": "acaricidal ratio", "setting": "[3]", "result": 100, "unit": "%"},
      {"measurement": "pesticidal ratio", "setting": "[2]", "result": 100, "unit": "%"}
    ]}
  ]
}
